Laboratory results reported in patent publication US20170153247A1, “METHOD FOR RISK ASSESSMENT OF ALLERGIC REACTION” (Excelsior Bio-System Incorporation, priority 2015, published 2017).

Experiments:
[1] = test system: binding between IgE in serum sample U and crab antigens; experiment: IgE inhibition experiment, conventional protein array spotted with crab antigens; set-up: species or system human
Protocol: (§1) The sample serum is diluted with diluent buffer containing adequate amount of BSA, no-fat milk, and Tween-20. The peptide array of the present embodiment is incubated with each serum sample respectively at 37° C. for 1 hour. A wash buffer containing Tween-20 is added to the reaction area of the peptide array to wash out extra serum. Anti-human IgE antibody labeled with Cy3 is added to the reaction area of the peptide array. The anti-human IgE with Cy3 binds on antibodies in the sample serum that binds to the peptide probes in the reaction area. The peptide array is then incubated
(§2) at 37° C. for 1 hour in darkness. The diluent, wash buffer, and anti-human IgE with Cy3 is provided by EBS Immunoflourescence Specific IgE Assay. A laser scanner with FD532 nm detector is utilized to scan the peptide array after incubation. The intensities of FD532 nm of each peptide probe on the peptide array can be obtained. For protein arrays the positive values are highlighted, while for peptide arrays the numbers (No.) of the peptide probes showing positive values are listed. […] For the peptide array of the present embodiment, although all of the peptide probes are derived from antigens of house dust mites, only a number of probes are bound to the serum samples and generate positive results.
(§3) Generally, the serum sample U is incubated with different concentration Der-p10-17 peptide (#60) for 30 minutes, and then serum sample U is transferred on conventional protein arrays spotted with crab, shrimp, dust mite and house dust mite antigens. In each of these arrays, different reaction blocks represent serum sample U incubated with different concentrations of Der-p10-17 (#60), where X1 is serum sample U incubated with the original concentration of Der-p10-17 (#60). X2 is serum sample U incubated with 2-fold dilution of the original concentration, X4 is serum sample U incubated with a 4-fold dilution and X8 is serum sample U incubated with an 8-fold dilution. The experiment protocol in Table 5A-5D and FIGS. 12A-12D may refer to the IgE immunofluorescence assay used in Table 4. The F532 nm intensity value of crabs, shrimps, dust mites, and house mites are shown respectively. Various concentrations of Der-p10-17 peptide (#60) are tested to evaluate the dependence of inhibition on the inhibitor peptide concentration. The results of the IgE inhibition experiments are presented in FIGS. 12A-12D and Tables 5A-5D.

[2] = test system: binding between IgE in serum sample U and shrimp antigens; experiment: IgE inhibition experiment, conventional protein array spotted with shrimp antigens; set-up: species or system human
Protocol: as §1, §2, §3

[3] = test system: binding between IgE in serum sample U and dust mite antigens; experiment: IgE inhibition experiment, conventional protein array spotted with dust mite antigens; set-up: species or system human
Protocol: (§4) The sample serum is diluted with diluent buffer containing adequate amount of BSA, no-fat milk, and Tween-20. The peptide array of the present embodiment is incubated with each serum sample respectively at 37° C. for 1 hour. A wash buffer containing Tween-20 is added to the reaction area of the peptide array to wash out extra serum. Anti-human IgE antibody labeled with Cy3 is added to the reaction area of the peptide array. The anti-human IgE with Cy3 binds on antibodies in the sample serum that binds to the peptide probes in the reaction area. The peptide array is then incubated at 37° C. for 1 hour in darkness. The diluent, wash buffer, and anti-human IgE with Cy3 is provided by EBS Immunoflourescence Specific IgE Assay. A laser scanner with FD532 nm detector is utilized to scan the peptide array after incubation. The intensities of FD532 nm of each peptide probe on the peptide array can be obtained. For protein arrays the positive values are highlighted, while for peptide arrays the numbers (No.) of the peptide probes showing positive values are listed. […] For the peptide array of the present embodiment, although all of the peptide probes are derived from antigens of house dust mites, only a number of probes are bound to the serum samples and generate positive results. Generally, the serum sample U is incubated with different concentration Der-p10-17 peptide (#60) for 30 minutes, and then serum sample U is transferred on conventional protein arrays spotted with crab, shrimp, dust mite and house dust mite antigens. In each of these arrays, different reaction blocks represent serum sample U incubated with different concentrations of Der-p10-17 (#60), where X1 is serum sample U incubated with the original concentration of Der-p10-17 (#60). X2 is serum sample U incubated with 2-fold dilution of the original concentration, X4 is serum sample U incubated with a 4-fold dilution and X8 is serum sample U incubated with an 8-fold dilution. The experiment protocol in Table 5A-5D and FIGS. 12A-12D may refer to the IgE immunofluorescence assay used in Table 4. The […] nm intensity value of crabs, shrimps, dust mites, and house mites are shown respectively. Various concentrations of Der-p10-17 peptide (#60) are tested to evaluate the dependence of inhibition on the inhibitor peptide concentration. The results of the IgE inhibition experiments are presented in FIGS. 12A-12D and Tables 5A-5D.

[4] = test system: binding between IgE in serum sample U and house dust mite antigens; experiment: IgE inhibition experiment, conventional protein array spotted with house dust mite antigens; set-up: species or system human
Protocol: as §4

[5] = test system: specific IgE in serum samples; experiment: Serum samples analysis on peptide array (IgE immunofluorescence assay); format: binding, human
Excerpt: A plurality of peptide probes are synthesized according to each of the above peptide fragments of Der p1, Der p2, and Der p10. Theses synthesized peptide probes are spotted on a solid surface to construct a peptide array. The peptide array includes at least one reaction area, and each reaction area includes at least one reaction block. […] The peptide array of FIG. 11 includes at least one reaction area, and each reaction area includes 4 reaction blocks, namely R1, R2, R3, and R4.
Serum samples are used and labeled to evaluate the peptide array of the present embodiment. The labeled serum samples include 23 positive serum samples obtained from patients showing allergy symptoms, one negative serum sample, and one blank. Conventional protein arrays are also used in the test, probes for which being allergens extracted from allergenic substances derived from natural origins, such as crabs, shrimps, dust mites (Dermatophagoides farinae), house dust mites and storage mites (Blomia tropicalis). Group 10 allergens (tropomyosins) have been assumed to be a major cause of cross-reactivity between house dust mites and other invertebrates.
The sample serum is diluted with diluent buffer containing adequate amount of BSA, no-fat milk, and Tween-20. The peptide array of the present embodiment is incubated with each serum sample respectively at 37° C. for 1 hour. […]

[6] = Block 2-X8, serum sample U pre-incubated 30 minutes with 8-fold dilution of peptide
[7] = Block 3-X4, 4-fold dilution of peptide
[8] = Block 4-X2, 2-fold dilution of peptide
[9] = Block 5-X1, original concentration of peptide

F532 nm intensity value, crabs ([1]; Block 2-X8): 14893
F532 nm intensity value, crabs [1, 6]: 15148
F532 nm intensity value, crabs ([1]; Block 3-X4, serum sample U pre-incubated with 4-fold dilution of peptide): 11803
F532 nm intensity value, crabs ([1]; Block 4-X2, serum sample U pre-incubated with 2-fold dilution of peptide): 10695
F532 nm intensity value, crabs ([1]; Block 5-X1, serum sample U pre-incubated with original concentration of peptide): 13067
F532 nm intensity value, shrimps ([2]; Block 2-X8): 16678
F532 nm intensity value, shrimps [2, 6]: 17902
F532 nm intensity value, shrimps [2, 7]: 14759
F532 nm intensity value, shrimps [2, 8]: 14481
F532 nm intensity value, shrimps [2, 9]: 15396
F532 nm intensity value, dust mites ([3]; Block 2-X8): 5767
F532 nm intensity value, dust mites [3, 6]: 5979
F532 nm intensity value, dust mites [3, 7]: 4767
F532 nm intensity value, dust mites [3, 8]: 4428
F532 nm intensity value, dust mites [3, 9]: 5475
F532 nm intensity value, house dust mites [4, 6]: 3288
F532 nm intensity value, house dust mites [4, 7]: 3247
F532 nm intensity value, house dust mites [4, 8]: 3659
F532 nm intensity value, house dust mites [4, 9]: 4288
binding of peptide probe to IgE in serum samples ([5]; peptide array): can bind to IgE in serum samples
Sequence: ELDQTFAELTGY [Der-p10-17]
inhibition of IgE cross-linking / decrease of intensity values, crab ([1]; serum sample U): can inhibit the IgE cross-linking between shrimp and crab
inhibition of IgE cross-linking / decrease of intensity values, shrimp ([2]; serum sample U): can inhibit the IgE cross-linking between shrimp and crab
inhibition of binding between IgE and antigens extracted from natural house dust mites ([4]; serum sample U): can inhibit the binding between IgE and antigens extracted from natural house dust mites
reactivity of serum sample U on the peptide array ([5]; serum sample U, Table 4): reactive
